# Assay results taken from patent publication US7888464B2, “Hepatitis C virus inhibitors” (Bristol-Myers Squibb Company, priority 2006, dated 2011).
# pIC50: −log10 of the molar value.
# Experiments:
# Type in all cases: biochemical
# human liver cathepsin B = target: T1, human liver cathepsin B (Homo sapiens, UniProt P07858); test: Specificity assay, cathepsin B; settings: read-out: Cathepsin B activity in the specificity assays
# T1 construct: purchased Sigma, EMDbiosciences; host or cells: human liver
# Protocol: The specificities of compounds of the present disclosure were determined against a variety of serine proteases: human neutrophil elastase (HNE), porcine pancreatic elastase (PPE) and human pancreatic chymotrypsin and one cysteine protease: human liver cathepsin B. In all cases a 96-well plate format protocol using a fluorometric Amino-Methyl-Coumarin (AMC) substrate specific for each enzyme was used as described previously (PCT Patent Application No. WO 00/09543) with some modifications to the serine protease assays. All enzymes were purchased from Sigma, EMDbiosciences while the substrates were from Bachem, Sigma and EMDbiosciences.
# Compound concentrations varied from 100 to 0.4 μM depending on their potency. The enzyme assays were each initiated by addition of substrate to enzyme-inhibitor pre-incubated for 10 min at room temperature and hydrolysis to 15% conversion as measured on cytofluor.
# 100 mM NaOAC (Sodium Acetate) pH 5.5, 3% DMSO, 1 mM TCEP (Tris(2-carboxyethyl)phosphine hydrochloride), 5 nM Cathepsin B (enzyme stock activated in buffer containing 20 mM TCEP before use), and 2 μM Z-FR-AMC diluted in H2O.
# The percentage of inhibition was calculated using the formula: [1−((UVinh−UVblank)/(UVctl−UVblank))]×100
# A non-linear curve fit was applied to the inhibition-concentration data, and the 50% effective concentration (IC50) was calculated by the use of Excel XLfit software.
# [1] = target: T2, HCV NS3/4A protease complex, BMS strain (genotype 1a) (UniProt P27958, species not given/STRAIN_BMS); test: FRET peptide assay to monitor HCV NS3/4A proteolytic activity (BMS strain); settings: BMS strain; read-out: IC50 against the NS3/4A BMS strain in the enzyme assay
# T2 construct: "DNA encoding the recombinant HCV NS3/4A protease complex (amino acids 1027 to 1711) for these strains" (said of H77 and J4L6S, not expressly of BMS); given for the H77/J4L6S constructs only
# Description: (§1) HCV NS3 protease complexes, derived from the BMS strain, H77 strain or J4L6S strain, were generated, as described below. These purified recombinant proteins were generated for use in a homogeneous assay (see below) to provide an indication of how effective compounds of the present disclosure would be in inhibiting HCV NS3 proteolytic activity.
# Serum from an HCV-infected patient was obtained from Dr. T. Wright, San Francisco Hospital. An engineered full-length cDNA (compliment deoxyribonucleic acid) template of the HCV genome (BMS strain) was constructed from DNA fragments obtained by reverse transcription-PCR(RT-PCR) of serum RNA (ribonucleic acid) and using primers selected on the basis of homology between other genotype la strains. From the determination of the entire genome sequence, a genotype la was assigned to the HCV isolate according to the classification of Simmonds et al. (See P Simmonds, K A Rose, S Graham, S W Chan, F McOmish, B C Dow, E A Follett, P L Yap and H Marsden, J. Clin. Microbiol., 31(6), 1493-1503 (1993)). […] The infectious clones, H77 (1a genotype) and J4L6S (1b genotype) were obtained from R. Purcell (NIH) and the sequences are published in Genbank (AAB67036, see Yanagi, M., Purcell, R. H., Emerson, S. U. and Bukh, J. Proc. Natl. Acad. Sci. U.S.A. 94(16), 8738-8743 (1997); AF054247, see Yanagi, M., St Claire, M., Shapiro, M., Emerson, S. U., Purcell, R. H. and Bukh, J, Virology 244 (1), 161-172. (1998)).
# The H77 and J4L6S strains were used for production of recombinant NS3/4A protease complexes. DNA encoding the recombinant HCV NS3/4A protease complex (amino acids 1027 to 1711) for these strains were manipulated as described by P. Gallinari et al. (see Gallinari P, Paolini C, Brennan D, Nardi C, Steinkuhler C, De Francesco R. Biochemistry. 38(17):5620-32, (1999)). Briefly, a three-lysine solubilizing tail was added at the 3′-end of the NS4A coding region. The cysteine in the P1 position of the NS4A-NS4B cleavage site (amino acid 1711) was changed to a glycine to avoid the proteolytic cleavage of the lysine tag. Furthermore, a cysteine to serine mutation was introduced by PCR at amino acid position 1454 to prevent the autolytic cleavage in the NS3 helicase domain. The variant DNA fragment was cloned in the pET21b bacterial expression vector (Novagen) and the NS3/4A complex was expressed in Escherichia. coli strain BL21 (DE3) (Invitrogen) following the protocol described by P. Gallinari et al. (see Gallinari P, Brennan D, Nardi C, Brunetti M, Tomei L, Steinkuhler C, De Francesco R., J. Virol. 72(8):6758-69 (1998)) with modifications. Briefly, the NS3/4A protease complex expression was induced with 0.5 millimolar (mM) Isopropyl β-D-1-thiogalactopyranoside (IPTG) for 22 hours (h) at 20° C. A typical fermentation (1 Liter (L)) yielded approximately 10 grams (g) of wet cell paste. The cells were resuspended in lysis buffer (10 mL/g) consisting of 25 mM N-(2-Hydroxyethyl)piperazine-N′-(2-Ethane Sulfonic acid) (HEPES), pH 7.5, 20% glycerol, 500 mM Sodium Chloride (NaCl), 0.5% Triton X-100, 1 microgram/milliliter (“μg/mL”) lysozyme, 5 mM Magnesium Chloride (MgCl2), 1 μg/ml DnaseI, 5 mM β-Mercaptoethanol (βME), Protease inhibitor-Ethylenediamine Tetraacetic acid (EDTA) free (Roche), homogenized and incubated for 20 minutes (min) at 4° C. The homogenate was sonicated and clarified by ultra-centrifugation at 235000 g for 1 hour (h) at 4° C. Imidazole was added to the supernatant to a final concentration of 15 mM and the pH adjusted to 8.0. The crude protein extract was loaded on a Nickel-Nitrilotriacetic acid (Ni-NTA) column pre-equilibrated with buffer B (25 mM HEPES, pH 8.0, 20% glycerol, 500 mM NaCl, 0.5% Triton X-100, 15 mM imidazole, 5 mM βME). The sample was loaded at a flow rate of 1 mL/min. The column was washed with 15 column volumes of buffer C (same as buffer B except with 0.2% Triton X-100). The protein was eluted with 5 column volumes of buffer D (same as buffer C except with 200 mM Imidazole). […]
# [2] = target: T3, HCV NS3/4A protease complex, J4L6S strain (1b genotype) (Hepatitis C virus genotype 1b, UniProt O92972, C1454S/C1711G); test: FRET peptide assay to monitor HCV NS3/4A proteolytic activity (J4L6S strain); settings: read-out: IC50 against NS3/4A J4L6S strain
# T3 construct: DNA encoding the recombinant HCV NS3/4A protease complex (amino acids 1027 to 1711) for these strains; made in house; host or cells: Escherichia coli BL21 (DE3), pET21b
# Description: as §1
# Serum from an HCV-infected patient was obtained from Dr. T. Wright, San Francisco Hospital. An engineered full-length cDNA (compliment deoxyribonucleic acid) template of the HCV genome (BMS strain) was constructed from DNA fragments obtained by reverse transcription-PCR(RT-PCR) of serum RNA (ribonucleic acid) and using primers selected on the basis of homology between other genotype la strains. From the determination of the entire genome sequence, a genotype la was assigned to the HCV isolate according to the classification of Simmonds et al. (See P Simmonds, K A Rose, S Graham, S W Chan, F McOmish, B C Dow, E A Follett, P L Yap and H Marsden, J. Clin. Microbiol., 31(6), 1493-1503 (1993)). […]
# T3 sequence (O92972 1027-1711 C1454S/C1711G, one chain of several): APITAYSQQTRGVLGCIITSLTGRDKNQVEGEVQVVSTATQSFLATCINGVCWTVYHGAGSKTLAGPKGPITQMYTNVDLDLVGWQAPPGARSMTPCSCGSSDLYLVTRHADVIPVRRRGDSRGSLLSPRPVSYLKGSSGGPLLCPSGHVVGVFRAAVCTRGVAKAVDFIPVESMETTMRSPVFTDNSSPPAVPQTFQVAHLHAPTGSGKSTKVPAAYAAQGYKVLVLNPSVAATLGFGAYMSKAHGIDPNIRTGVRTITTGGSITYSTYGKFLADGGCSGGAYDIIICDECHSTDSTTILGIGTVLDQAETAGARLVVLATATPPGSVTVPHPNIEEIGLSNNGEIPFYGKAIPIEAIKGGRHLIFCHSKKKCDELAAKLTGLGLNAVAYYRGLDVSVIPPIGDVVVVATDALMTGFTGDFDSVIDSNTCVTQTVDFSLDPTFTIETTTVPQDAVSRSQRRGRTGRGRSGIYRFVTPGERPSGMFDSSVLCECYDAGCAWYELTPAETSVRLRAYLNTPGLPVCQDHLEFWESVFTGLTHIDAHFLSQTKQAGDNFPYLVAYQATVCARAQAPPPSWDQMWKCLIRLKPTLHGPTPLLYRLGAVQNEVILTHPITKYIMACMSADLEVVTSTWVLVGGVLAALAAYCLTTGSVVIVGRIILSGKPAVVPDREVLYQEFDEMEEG
# T2 sequence (P27958 1027-1657, stated change not applied, one chain of several): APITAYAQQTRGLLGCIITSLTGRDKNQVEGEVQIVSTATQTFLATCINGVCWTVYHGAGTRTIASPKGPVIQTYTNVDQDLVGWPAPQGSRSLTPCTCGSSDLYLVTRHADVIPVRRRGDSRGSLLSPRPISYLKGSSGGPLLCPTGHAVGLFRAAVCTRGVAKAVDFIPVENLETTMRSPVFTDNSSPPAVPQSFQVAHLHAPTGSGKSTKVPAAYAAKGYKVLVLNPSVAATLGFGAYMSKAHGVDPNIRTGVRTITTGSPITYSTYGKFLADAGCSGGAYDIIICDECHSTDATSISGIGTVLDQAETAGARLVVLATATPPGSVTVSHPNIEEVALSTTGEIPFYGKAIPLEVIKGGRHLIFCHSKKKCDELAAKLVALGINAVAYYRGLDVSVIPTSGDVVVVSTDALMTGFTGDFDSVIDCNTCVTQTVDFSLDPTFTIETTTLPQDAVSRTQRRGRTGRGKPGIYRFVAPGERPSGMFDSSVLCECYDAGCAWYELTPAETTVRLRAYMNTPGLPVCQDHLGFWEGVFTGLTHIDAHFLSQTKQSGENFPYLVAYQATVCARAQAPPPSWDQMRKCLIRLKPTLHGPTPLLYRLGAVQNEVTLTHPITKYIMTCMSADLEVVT
structure (smiles),measurement,setting,value
C=C[C@@H]1C[C@]1(NC(=O)[C@@H]1C[C@@](O)(c2ccc(-c3ccccc3)cc2)CN1C(=O)[C@@H](NC(=O)OC(C)(C)C)C(C)(C)C)C(=O)NS(=O)(=O)C1CC1 [Compound 3],pIC50,human liver cathepsin B,< 4.00
same,pIC50,[1],8.36
same,pIC50,[2],8.96
